Data taken from patent US20140357713A1, “ANTIMICROBIAL COMPOUNDS AND METHODS OF USE” (NexMed Holdings, Inc., priority 2012, published 2014).
Where a name gives a salt, the structure may show the parent alone. Read-outs that look alike come from different tables or passages of the source.

How the values were obtained:
[1] = tested on: Candida albicans (ATCC 90029); assay: Minimum inhibitory concentration (MIC) assay, Example 33; format: cell-based; conditions: Candida albicans
Procedure, shortened: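 Broth microdilution per CLSI guidelines in RPMI 1640; inoculum set to OD530 0.08–0.13, diluted 1:50 then 1:20 to 2× strength and mixed 1:2 with 2-fold serial compound dilutions. Incubated at 35° C; MIC read per CLSI.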

[2] = Solubility (Sol., Table 1); format: physicochemical
[3] = pH (Table 1); format: physicochemical
[4] = tested on: Aspergillus niger (CMCC 98003); assay: Minimum inhibitory concentration (MIC) assay, Example 33; format: cell-based; conditions: for MIC: Aspergillus niger; for MIC Aspergillus niger: n = 2
Procedure, shortened: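 Broth microdilution MIC per CLSI guidelines in RPMI 1640 with serial 2-fold compound dilutions. Spore suspension from sporulating colonies adjusted to OD530 0.09-0.13, diluted 1:50 as 2× inoculum and added 1:2 to drug wells; plates incubated at 35 °C and MIC read per CLSI.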

[5] = tested on: Escherichia coli (ATCC 25922); assay: as above; format: cell-based; conditions: Escherichia coli
Procedure, shortened: (§1)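 CLSI broth microdilution; CAMHB; serial 2-fold dilutions; inoculum 0.5 McFarland (OD600 0.08-0.13), diluted 1:100 as 2× stock, added 1:2; 35° C incubation; MIC read by CLSI criteria.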

[6] = tested on: Pseudomonas aeruginosa (ATCC 27853); assay: as above; format: cell-based; conditions: Pseudomonas aeruginosa
Procedure, shortened: as §1

[7] = tested on: Staphulococcus aureus (ATCC 29213); assay: as above; format: cell-based, Staphylococcus aureus; conditions: Staphylococcus aureus
Procedure, shortened: as §1

[8] = tested on: Escherichia coli (ATCC 25922); assay: Time kill study, Example 33 (0 to 5 min); format: cell-based; conditions: 1×MIC
Procedure, shortened: (§2)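 Per CLSI guidelines, strain suspensions were mixed 1:1 by volume with compound solution; samples taken at 0 min, 30 sec, 1 min and 5 min were diluted and plated on agar. Colonies were counted after 24 to 48 hrs incubation and viable counts reported as Log10 CFU/mL.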

[9] = tested on: Pseudomonas aeruginosa (ATCC 27853); assay: Time kill study, Example 33 (0 to 5 min); format: cell-based; conditions: 1×MIC
Procedure, shortened: as §2

[10] = tested on: Candida albicans (ATCC 90029); assay: Time kill study, Example 33 (0 to 5 min); format: cell-based; conditions: 1×MIC
Procedure, shortened: as §2

[11] = tested on: Staphylococcus aureus (ATCC 29213); assay: Time kill study, Example 33 (0 to 5 min); format: cell-based; conditions: 1×MIC
Procedure, shortened: as §2

[12] = ATCC90029, read-out: MIC Candida albicans, n = 1
[13] = ATCC90029, read-out: MIC Candida albicans, n = 2
[14] = CMCC98003, read-out: MIC Aspergillus niger
[15] = ATCC25922, Table 19 summary of Example 33 and Example 35
[16] = ATCC25922, read-out: MIC E. coli, n = 1
[17] = ATCC25922, read-out: MIC E. coli, n = 2
[18] = ATCC27853, read-out: MIC P. aeruginosa, n = 1
[19] = ATCC27853, read-out: MIC P. aeruginosa, n = 2
[20] = ATCC29213, read-out: MIC S. aureus, n = 1
[21] = ATCC29213, read-out: MIC S. aureus, n = 2

Structure (SMILES) | MIC ([1]; ATCC90029, Table 19 summary) | MIC [1, 12] | MIC [1, 13] | Sol. [2] | pH [3] | MIC ([4]; CMCC98003) | MIC [4, 14] | MIC Aspergillus niger [4] | MIC [5, 15] | MIC [5, 16] | MIC [5, 17] | MIC ([6]; ATCC27853, Table 19 summary) | MIC [6, 18] | MIC [6, 19] | MIC [7, 20] | MIC [7, 21] | Viable counts, Escherichia coli time kill study ([8]; 0.5 min) | Viable counts, Escherichia coli time kill study ([8]; 1 min) | Viable counts, Escherichia coli time kill study ([8]; 5 min) | Viable counts, Escherichia coli time kill study ([8]; time 0) | also measured
CCCCCCCCCCCOC(=O)C(C)N(C)C (stereo not shown) [Nex-67, Undecyl 2-(dimethylamino)propanoate hydrochloride] | 6250 µg/mL | 6250 µg/mL | 6250 µg/mL | 81% | 3.77 | 12500 µg/mL | 12500 µg/mL | 12500 µg/mL | 1560 µg/mL | 1560 µg/mL | 1560 µg/mL | 6250 µg/mL | 6250 µg/mL | 6250 µg/mL | 3130 µg/mL | 1560 µg/mL | 5.81 Log10 CFU/mL | 5.28 Log10 CFU/mL | 3.82 Log10 CFU/mL | 5.64 Log10 CFU/mL | Viable counts, Pseudomonas aeruginosa time kill study ([9]; 0.5 min): <4.0 Log10 CFU/mL; Viable counts, Pseudomonas aeruginosa time kill study ([9]; 1 min): <3.70 Log10 CFU/mL; Viable counts, Pseudomonas aeruginosa time kill study ([9]; 5 min): <3.52 Log10 CFU/mL; Viable counts, Pseudomonas aeruginosa time kill study ([9]; time 0): 5.71 Log10 CFU/mL; Viable counts, Candida albicans time kill study ([10]; 0.5 min): 5.53 Log10 CFU/mL; Viable counts, Candida albicans time kill study ([10]; 1 min): 5.49 Log10 CFU/mL; Viable counts, Candida albicans time kill study ([10]; 5 min): 5.41 Log10 CFU/mL; Viable counts, Candida albicans time kill study ([10]; time 0): 5.58 Log10 CFU/mL; Viable counts, Staphylococcus aureus time kill study ([11]; 0.5 min): 6.1 Log10 CFU/mL; Viable counts, Staphylococcus aureus time kill study ([11]; 1 min): 6.13 Log10 CFU/mL; Viable counts, Staphylococcus aureus time kill study ([11]; 5 min): 5.88 Log10 CFU/mL; Viable counts, Staphylococcus aureus time kill study ([11]; time 0): 6.27 Log10 CFU/mL
CCCCCCCCCCCCOC(=O)C(Cc1ccccc1)N(C)C (stereo not shown) [Nex-54, Dodecyl 2-(dimethylamino)-3-phenylpropanoate hydrochloride] | 6250 µg/mL | 6250 µg/mL | 6250 µg/mL | 58% | 2.16 | 12500 µg/mL | 12500 µg/mL | 12500 µg/mL | ≥ 12500 µg/mL | > 12500 µg/mL | 12500 µg/mL | ≥ 12500 µg/mL | > 12500 µg/mL | 12500 µg/mL | > 12500 µg/mL | 12500 µg/mL |  |  |  |  | MIC ([7]; ATCC29213, Table 19 summary): ≥ 12500 µg/mL; Viable counts, Candida albicans time kill study ([10]; 0.5 min): 5.56 Log10 CFU/mL; Viable counts, Candida albicans time kill study ([10]; 1 min): 5.52 Log10 CFU/mL; Viable counts, Candida albicans time kill study ([10]; 5 min): 5.48 Log10 CFU/mL; Viable counts, Candida albicans time kill study ([10]; time 0): 5.56 Log10 CFU/mL
CCCCCCCCCCCCOC(=O)C(C(C)C)N(C)C (stereo not shown) [Nex-53, Dodecyl 2-(dimethylamino)-3-methylbutanoate hydrochloride] | > 12500 µg/mL | > 12500 µg/mL | > 12500 µg/mL | 44% | 1.69 | > 12500 µg/mL | > 12500 µg/mL | >12500 µg/mL | 6250 µg/mL | 6250 µg/mL | 6250 µg/mL | 6250 µg/mL | 6250 µg/mL | 6250 µg/mL | 6250 µg/mL | 6250 µg/mL | 5.72 Log10 CFU/mL | 5.71 Log10 CFU/mL | <3.52 Log10 CFU/mL | 5.64 Log10 CFU/mL | MIC ([7]; ATCC29213, Table 19 summary): 6250 µg/mL; Viable counts, Pseudomonas aeruginosa time kill study ([9]; 0.5 min): 5.54 Log10 CFU/mL; Viable counts, Pseudomonas aeruginosa time kill study ([9]; 1 min): 5.47 Log10 CFU/mL; Viable counts, Pseudomonas aeruginosa time kill study ([9]; 5 min): 5.49 Log10 CFU/mL; Viable counts, Pseudomonas aeruginosa time kill study ([9]; time 0): 5.54 Log10 CFU/mL; Viable counts, Staphylococcus aureus time kill study ([11]; 0.5 min): 6.2 Log10 CFU/mL; Viable counts, Staphylococcus aureus time kill study ([11]; 1 min): 6.24 Log10 CFU/mL; Viable counts, Staphylococcus aureus time kill study ([11]; 5 min): 6.21 Log10 CFU/mL; Viable counts, Staphylococcus aureus time kill study ([11]; time 0): 6.35 Log10 CFU/mL
CCCCCCCCCCCCOC(=O)C(CC(C)C)N(C)C (stereo not shown) [Nex-55, Dodecyl 2-(dimethylamino)-4-methylpentanoate hydrochloride] | > 12500 µg/mL | > 12500 µg/mL | > 12500 µg/mL | 50% | 1.84 | > 12500 µg/mL | > 12500 µg/mL | >12500 µg/mL | 6250 µg/mL | 6250 µg/mL | 6250 µg/mL | 6250 µg/mL | 6250 µg/mL | 6250 µg/mL | 6250 µg/mL | 6250 µg/mL | 5.71 Log10 CFU/mL | 5.51 Log10 CFU/mL | 4.6 Log10 CFU/mL | 5.68 Log10 CFU/mL | MIC ([7]; ATCC29213, Table 19 summary): 6250 µg/mL; Viable counts, Pseudomonas aeruginosa time kill study ([9]; 0.5 min): 5.61 Log10 CFU/mL; Viable counts, Pseudomonas aeruginosa time kill study ([9]; 1 min): 5.58 Log10 CFU/mL; Viable counts, Pseudomonas aeruginosa time kill study ([9]; 5 min): 5.45 Log10 CFU/mL; Viable counts, Pseudomonas aeruginosa time kill study ([9]; time 0): 5.37 Log10 CFU/mL; Viable counts, Staphylococcus aureus time kill study ([11]; 0.5 min): 6.22 Log10 CFU/mL; Viable counts, Staphylococcus aureus time kill study ([11]; 1 min): 6.21 Log10 CFU/mL; Viable counts, Staphylococcus aureus time kill study ([11]; 5 min): 6.18 Log10 CFU/mL; Viable counts, Staphylococcus aureus time kill study ([11]; time 0): 6.23 Log10 CFU/mL
CCCCCCCCCCCCCCOC(=O)C(C)N(C)C (stereo not shown) [Nex-66, Tetradecyl 2-(dimethylamino)propanoate hydrochloride] | > 12500 µg/mL | > 12500 µg/mL | > 12500 µg/mL | 48% | 2.35 | > 12500 µg/mL | > 12500 µg/mL | >12500 µg/mL | 3130 µg/mL | 3130 µg/mL | 3130 µg/mL | 6250 µg/mL | 6250 µg/mL | 6250 µg/mL | 3130 µg/mL | 3130 µg/mL | 5.91 Log10 CFU/mL | 6.03 Log10 CFU/mL | 5.81 Log10 CFU/mL | 5.7 Log10 CFU/mL | MIC ([7]; ATCC29213, Table 19 summary): 3130 µg/mL; Viable counts, Pseudomonas aeruginosa time kill study ([9]; 0.5 min): 5.91 Log10 CFU/mL; Viable counts, Pseudomonas aeruginosa time kill study ([9]; 1 min): 5.68 Log10 CFU/mL; Viable counts, Pseudomonas aeruginosa time kill study ([9]; 5 min): 5.56 Log10 CFU/mL; Viable counts, Pseudomonas aeruginosa time kill study ([9]; time 0): 5.64 Log10 CFU/mL; Viable counts, Staphylococcus aureus time kill study ([11]; 0.5 min): 6.5 Log10 CFU/mL; Viable counts, Staphylococcus aureus time kill study ([11]; 1 min): 6.41 Log10 CFU/mL; Viable counts, Staphylococcus aureus time kill study ([11]; 5 min): 6.39 Log10 CFU/mL; Viable counts, Staphylococcus aureus time kill study ([11]; time 0): 6.27 Log10 CFU/mL
CCCCCCCCCCCC(C)OC(=O)C(C)N(C)C (stereo not shown) [Nex-64, Tridecan-2-yl 2-(dimethylamino)propanoate hydrochloride] | > 12500 µg/mL | > 12500 µg/mL | > 12500 µg/mL | 44% | 1.95 | > 12500 µg/mL | > 12500 µg/mL | >12500 µg/mL | 3130 µg/mL | 3130 µg/mL | 3130 µg/mL | 6250 µg/mL | 6250 µg/mL | 6250 µg/mL | 3130 µg/mL | 3130 µg/mL | 5.73 Log10 CFU/mL | 5.7 Log10 CFU/mL | <3.52 Log10 CFU/mL | 5.71 Log10 CFU/mL | MIC ([7]; ATCC29213, Table 19 summary): 3130 µg/mL; Viable counts, Pseudomonas aeruginosa time kill study ([9]; 0.5 min): 4 Log10 CFU/mL; Viable counts, Pseudomonas aeruginosa time kill study ([9]; 1 min): <3.70 Log10 CFU/mL; Viable counts, Pseudomonas aeruginosa time kill study ([9]; 5 min): <3.52 Log10 CFU/mL; Viable counts, Pseudomonas aeruginosa time kill study ([9]; time 0): 5.45 Log10 CFU/mL; Viable counts, Staphylococcus aureus time kill study ([11]; 0.5 min): 6.41 Log10 CFU/mL; Viable counts, Staphylococcus aureus time kill study ([11]; 1 min): 6.38 Log10 CFU/mL; Viable counts, Staphylococcus aureus time kill study ([11]; 5 min): 6.36 Log10 CFU/mL; Viable counts, Staphylococcus aureus time kill study ([11]; time 0): 6.34 Log10 CFU/mL
